Experimental findings from PubChem BioAssay (NCI) are described below.

Some test systems named below: HCT-116 colon; KM12 colon; SNB-75 CNS; DU-145 prostate; CCRF-CEM leukemia; HT29 colon; UO-31 renal; SNB-19 CNS; K-562 leukemia; HCT-15 colon.
Test in all cases: NCI-60 cell line screen, 48 h

The structures appear in SMILES notation. Several values for one entry are separate records, joined by “and”; a condition that tells them apart may be missing. Identical values can stand only once.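 Five concentrations, 48 hours, 96-well plates. GI50: concentration for 50% inhibition of growth. TGI: concentration producing complete growth inhibition.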

Regarding `O=C(O)C1CC(O)CN1` (stereo not given), the TGI in the test on HCT-116 colon, in the test on KM12 colon, in the test with SNB-75 CNS, in the test on DU-145 prostate, with CCRF-CEM leukemia and in the test on HT29 colon was greater than 100 µM each time. Moreover, the TGI with UO-31 renal, in the test with SNB-19 CNS, in the test with K-562 leukemia and in the test on HCT-15 colon was greater than 100 µM in each case.
Take `Cc1cn(-c2cc(NC(=O)c3ccc(C)c(Nc4nccc(-c5cccnc5)n4)c3)cc(C(F)(F)F)c2)cn1`: the GI50 in the test with HCT-116 colon is 4.26 µM and 2.06 µM; in the test on KM12 colon, 3.81 µM and 2.72 µM; with SNB-75 CNS, 8.04 µM and 3.47 µM; in the test on DU-145 prostate, 3.25 µM and 2.34 µM; in the test with CCRF-CEM leukemia it was > 10 µM and 1.25 µM; with HT29 colon, 1.7 µM and 1.94 µM. For the same compound, the GI50 was 1.75 µM and 1.58 µM in the test with UO-31 renal; > 10 µM and 13.1 µM in the test on SNB-19 CNS; 2.15 µM in the test on K-562 leukemia; 3.18 µM and 4.6 µM in the test with HCT-15 colon. Further, the TGI is > 10 µM and 7.79 µM in the test on HCT-116 colon; > 10 µM and 9.49 µM in the test with KM12 colon; > 10 µM and 11.5 µM in the test with SNB-75 CNS; > 10 µM and 4.47 µM in the test with DU-145 prostate; greater than 32.3 µM with CCRF-CEM leukemia; > 10 µM and 9.13 µM in the test on HT29 colon. The TGI in the test with UO-31 renal was 8.9 µM and 4.56 µM; in the test on SNB-19 CNS it was > 10 µM and 32.7 µM; in the test with K-562 leukemia, > 10 µM and 1.03 µM; with HCT-15 colon, greater than 38.3 µM.
For the compound `COc1cc(-c2nc(SCCC(C)C)nc(Nc3ccc(S(N)(=O)=O)cc3)c2C#N)cc(OC)c1OC`, the GI50 was 2.01 µM in the test with HCT-116 colon; 2.2 µM with KM12 colon; 2.15 µM in the test with SNB-75 CNS; 3.47 µM in the test with DU-145 prostate; 2.88 µM in the test with CCRF-CEM leukemia; 2.25 µM with HT29 colon. Moreover, the GI50 in the test on UO-31 renal was 1.82 µM; in the test on SNB-19 CNS, 5.38 µM; in the test with K-562 leukemia, 2.73 µM; with HCT-15 colon it was 2.4 µM. Moreover, the TGI is 4.85 µM in the test with HCT-116 colon; 5.56 µM in the test on KM12 colon; 54.2 µM in the test on SNB-75 CNS; greater than 100 µM in the test with DU-145 prostate; greater than 100 µM in the test with CCRF-CEM leukemia; 5.13 µM in the test on HT29 colon. For the same compound, the TGI in the test on UO-31 renal, in the test with SNB-19 CNS, with K-562 leukemia and in the test with HCT-15 colon was greater than 100 µM each time.
In the case of `CCCCCCCc1cc2c3c(nc4ccccc42)C(=O)c2cccnc2-c3n1`, the GI50 with HCT-116 colon was 0.375 µM; in the test with KM12 colon it was 1.45 µM; with SNB-75 CNS it was 5.11 µM; with DU-145 prostate, 2.54 µM; with CCRF-CEM leukemia, 1.62 µM; with HT29 colon, 5.99 µM. For the same compound, the GI50 was 3.85 µM in the test on UO-31 renal, 2.17 µM with SNB-19 CNS, 1.29 µM with K-562 leukemia and 0.97 µM in the test on HCT-15 colon. The TGI was 3.35 µM in the test with HCT-116 colon; 3.11 µM with KM12 colon; 10.1 µM in the test on SNB-75 CNS; 6.63 µM in the test on DU-145 prostate; 7.66 µM in the test on CCRF-CEM leukemia; 27.7 µM in the test on HT29 colon. Besides, the TGI was 11 µM in the test with UO-31 renal, 7.31 µM in the test with SNB-19 CNS, greater than 24.2 µM in the test on K-562 leukemia and 5.58 µM in the test with HCT-15 colon.
Take `O=C1C[C@@H]2/C(=C(O)\C=C\c3ccccc3)C(=O)C=C[C@@H]2O1`: the GI50 with HCT-116 colon was 0.382 µM; in the test with KM12 colon it was 0.505 µM; with SNB-75 CNS it was 2.07 µM; in the test on DU-145 prostate, 0.515 µM; in the test with CCRF-CEM leukemia, 0.447 µM; in the test with HT29 colon, 0.844 µM. The GI50 was 0.878 µM with UO-31 renal, 9.03 µM in the test on SNB-19 CNS, 0.449 µM with K-562 leukemia and 1.3 µM in the test with HCT-15 colon. In addition, the TGI was 1.6 µM in the test on HCT-116 colon; 1.82 µM with KM12 colon; 5.78 µM in the test with SNB-75 CNS; 1.93 µM with DU-145 prostate; 2.89 µM with CCRF-CEM leukemia; 2.4 µM in the test with HT29 colon. The TGI in the test with UO-31 renal was 2.2 µM; with SNB-19 CNS, 22.6 µM; in the test on K-562 leukemia, greater than 100 µM; in the test on HCT-15 colon, 3.69 µM.
Regarding `NCCCNCCCCNC(=O)C(O)NC(=O)CCCCCCN=C(N)N` (stereo not given), the GI50 is 1830 µM in the test with HCT-116 colon; 1360 µM with KM12 colon; greater than 1870 µM in the test with SNB-75 CNS; 2890 µM in the test on DU-145 prostate; 1320 µM in the test on CCRF-CEM leukemia; greater than 3580 µM in the test on HT29 colon. Further, the GI50 is 2980 µM in the test with UO-31 renal, 2080 µM in the test with SNB-19 CNS, 805 µM in the test on K-562 leukemia and greater than 2640 µM in the test with HCT-15 colon. Also, the TGI is 750 µM and > 4790 µM in the test on HCT-116 colon; 619 µM and > 5000 µM in the test on KM12 colon; 671 µM and > 3170 µM with SNB-75 CNS; greater than 5000 µM in the test with DU-145 prostate; 750 µM and > 3570 µM in the test on CCRF-CEM leukemia; greater than 5000 µM in the test on HT29 colon. The TGI was 619 µM and > 5000 µM in the test on UO-31 renal; 750 µM and > 4430 µM in the test on SNB-19 CNS; 750 µM and > 3610 µM in the test on K-562 leukemia; 750 µM and > 5000 µM in the test on HCT-15 colon.
Regarding `Cc1cc(C)c(-n2c(-c3ccc(Br)cc3)cs/c2=N\N=C2C=C(C(C)(C)C)C(=O)C(C(C)(C)C)=C2)c(C)c1`, the TGI with HCT-116 colon was greater than 100 µM; in the test on KM12 colon it was greater than 100 µM; with SNB-75 CNS, 57.1 µM; with DU-145 prostate, greater than 100 µM; in the test with CCRF-CEM leukemia, greater than 100 µM; in the test on HT29 colon, greater than 100 µM. Further, the TGI in the test on UO-31 renal, in the test on SNB-19 CNS, in the test on K-562 leukemia and in the test on HCT-15 colon was greater than 100 µM in each case.
Consider `COc1ccc(-c2ccc(-c3ccc(C(=N)N)o3)o2)cc1`, for which the GI50 was 1.07 µM with HCT-116 colon; 0.585 µM in the test on KM12 colon; 1.47 µM in the test with SNB-75 CNS; 1.91 µM in the test with DU-145 prostate; 1.84 µM in the test with CCRF-CEM leukemia; 0.484 µM with HT29 colon. Further, the GI50 was 1.72 µM in the test on UO-31 renal, 1.99 µM with SNB-19 CNS, 0.487 µM in the test on K-562 leukemia and 0.675 µM with HCT-15 colon. Moreover, the TGI is 3.01 µM in the test on HCT-116 colon; 6.73 µM in the test with KM12 colon; 6.81 µM with SNB-75 CNS; 4.86 µM with DU-145 prostate; 6.75 µM with CCRF-CEM leukemia; 2.82 µM with HT29 colon. Also, the TGI is 3.79 µM in the test with UO-31 renal, 11.3 µM in the test on SNB-19 CNS, 2.12 µM with K-562 leukemia and 4.72 µM in the test on HCT-15 colon.
